Values joined by “and” are separate entries in the source; they are usually repeats but may differ in a detail not shown here. Equal values may be shown once. Records with an inconclusive call do not appear.
System: BDF1 mice, colon carcinoma 38 sc, T/C %
Assay: NCI In Vivo Anticancer Drug Screen. Data for tumor model Colon Carcinoma 38 (subcutaneous) in B6D2F1 (BDF1) mice
Settings: endpoint: median tumor weight (est.), higher = larger tumour
Experimental: The antitumor activity of compounds was measured in mice bearing transplantable tumors. Survival or tumor size were measured and the results are expressed as the measurement made in the treated group (T) divided by the measurement made in the vehicle treated control group (C). The tumor model used in this assay is Colon Carcinoma 38 (subcutaneous) in B6D2F1 (BDF1) mice

[1] = dose: 6.25 mg/kg/injection, schedule: Q07DX002 (ip), vehicle: saline with Tween-80
[2] = dose: 12.5 mg/kg/injection, schedule: Q07DX002 (ip), vehicle: saline with Tween-80

COc1cccc2c1C(=O)c1c(O)c3c(c(O)c1C2=O)C[C@H](O)C[C@@H]3OC1CC(N)C(O)C(C)O1 (stereo partly drawn)
T/C (dose: 3.38 mg/kg/injection, schedule: Q07DX002 (ip), vehicle: water): 97 % of control
T/C (dose: 13.5 mg/kg/injection, schedule: Q07DX002 (ip), vehicle: water): 108 % of control
T/C (dose: 15.0 mg/kg/injection, schedule: Q07DX002 (ip), vehicle: saline): 87 % of control
T/C (dose: 24.0 mg/kg/injection, schedule: Q07DX002 (ip), vehicle: saline): 101 % of control
T/C (dose: 27.0 mg/kg/injection, schedule: Q07DX002 (ip), vehicle: water): 55 % of control
T/C (dose: 38.0 mg/kg/injection, schedule: Q07DX002 (ip), vehicle: saline): 61 % of control

COC1C(CO)OC(n2cnc3c(=S)nc(N)[nH]c32)C1O (stereo not drawn)
T/C (dose: 12.5 mg/kg/injection, schedule: Q07DX002 (ip), vehicle: Klucel (hydroxypropylcellulose) (HPC)): 98 % of control
T/C (dose: 25.0 mg/kg/injection, schedule: Q07DX002 (ip), vehicle: Klucel (hydroxypropylcellulose) (HPC)): 74 % of control
T/C (dose: 50.0 mg/kg/injection, schedule: Q07DX002 (ip), vehicle: Klucel (hydroxypropylcellulose) (HPC)): 44 % of control
T/C (dose: 100.0 mg/kg/injection, schedule: Q07DX002 (ip), vehicle: Klucel (hydroxypropylcellulose) (HPC)): 118 % of control
T/C (dose: 200.0 mg/kg/injection, schedule: Q07DX002 (ip), vehicle: Klucel (hydroxypropylcellulose) (HPC)): 69 % of control
T/C (dose: 400.0 mg/kg/injection, schedule: Q07DX002 (ip), vehicle: Klucel (hydroxypropylcellulose) (HPC)): 44 % of control

O=C1NC(O)CCN1C1OC(CO)C(O)C1O (stereo not drawn)
T/C (dose: 100.0 mg/kg/injection, schedule: Q07DX002 (ip), vehicle: saline): 153 % of control
T/C (dose: 100.0 mg/kg/injection, schedule: Q07DX003 (ip), vehicle: saline): 94 % of control
T/C (dose: 200.0 mg/kg/injection, schedule: Q07DX002 (ip), vehicle: saline): 192 % of control
T/C (dose: 200.0 mg/kg/injection, schedule: Q07DX003 (ip), vehicle: saline): 91 % of control
T/C (dose: 400.0 mg/kg/injection, schedule: Q07DX002 (ip), vehicle: saline): 89 % of control
T/C (dose: 400.0 mg/kg/injection, schedule: Q07DX003 (ip), vehicle: saline): 157 % of control
T/C (dose: 800.0 mg/kg/injection, schedule: Q07DX002 (ip), vehicle: saline): 113 % of control

CC[N+](CC)(CC)CC
T/C (dose: 1.56 mg/kg/injection, schedule: Q07DX002 (ip), vehicle: saline with Tween-80): 96 % of control
T/C (dose: 3.12 mg/kg/injection, schedule: Q07DX002 (ip), vehicle: saline with Tween-80): 119 % of control
T/C [1]: 86 % of control
T/C [2]: 59 % of control

CS(=O)(=O)c1ncc(Br)cn1
T/C [1]: 106 % of control
T/C [2]: 76 % of control
T/C (dose: 50.0 mg/kg/injection, schedule: Q07DX002 (ip), vehicle: saline with Tween-80): 94 % of control
T/C (dose: 100.0 mg/kg/injection, schedule: Q07DX002 (ip), vehicle: saline with Tween-80): 113 % of control
T/C (dose: 200.0 mg/kg/injection, schedule: Q07DX002 (ip), vehicle: saline with Tween-80): 106 % of control

O=C1C=C2C(=CCOC2O)O1 (stereo not drawn)
T/C (dose: 0.75 mg/kg/injection, schedule: Q07DX002 (ip), vehicle: saline): 91 % of control
T/C (dose: 1.0 mg/kg/injection, schedule: Q07DX002 (ip), vehicle: water): 98 % of control
T/C (dose: 1.5 mg/kg/injection, schedule: Q07DX002 (ip), vehicle: saline): 72 % of control
T/C (dose: 2.0 mg/kg/injection, schedule: Q07DX002 (ip), vehicle: water): 90 % of control
T/C (dose: 4.0 mg/kg/injection, schedule: Q07DX002 (ip), vehicle: water): 117 % of control

O.O.[NH-]C1CCCCC1[NH-].[Pt+2] (stereo not drawn)
T/C (dose: 1.25 mg/kg/injection, schedule: Q07DX002 (ip), vehicle: dextrose): 98 % of control
T/C (dose: 10.0 mg/kg/injection, schedule: Q07DX002 (ip), vehicle: dextrose): 61 % of control and 62 % of control
T/C (dose: 20.0 mg/kg/injection, schedule: Q07DX002 (ip), vehicle: dextrose): 37 % of control and 43 % of control
T/C (dose: 40.0 mg/kg/injection, schedule: Q07DX002 (ip), vehicle: dextrose): 20 % of control

O=C(O)CC(=O)O.[NH-]C1CCCCC1[NH-].[Pt+2] (stereo not drawn)
T/C (dose: 12.5 mg/kg/injection, schedule: Q07DX002 (ip), vehicle: dextrose): 84 % of control
T/C (dose: 20.0 mg/kg/injection, schedule: Q07DX003 (ip), vehicle: dextrose): 120 % of control
T/C (dose: 25.0 mg/kg/injection, schedule: Q07DX002 (ip), vehicle: dextrose): 55 % of control and 64 % of control
T/C (dose: 40.0 mg/kg/injection, schedule: Q07DX003 (ip), vehicle: dextrose): 48 % of control
T/C (dose: 50.0 mg/kg/injection, schedule: Q07DX002 (ip), vehicle: dextrose): 12 % of control and 35 % of control
T/C (dose: 80.0 mg/kg/injection, schedule: Q07DX003 (ip), vehicle: dextrose): 9 % of control
